Results published in ChEMBL document CHEMBL1146416, “A new glycoside antimicrobial agent from Persoonia linearis x pinifolia” (J Nat Prod, 1997).
Calls of active or inactive are those of the source. The rule behind the calls is not given here.

How the values were obtained:
Assay type in all cases: functional, organism-based
Phytophthora cinnamomi = test: Antimicrobial activity against Phytophthora cinnamomi RSC290 at 6.25 ug/disk after 18 to 24 hrs
Escherichia coli = test: Antimicrobial activity against Escherichia coli RSC2 at 6.25 ug/disk after 18 to 24 hrs
Bacillus subtilis = test: Antimicrobial activity against Bacillus subtilis RSC1 at <12.5 ug/disk after 24 hrs

With `C=C(C(=O)OC[C@H]1O[C@@H](Oc2ccc(O)cc2)[C@H](O)[C@@H](O)[C@@H]1O)[C@@H](O)CO` the Activity (Phytophthora cinnamomi) was “Active”, the Activity (Escherichia coli) was “Active” and the Activity (Bacillus subtilis) was “inactive”.
